According to PubChem BioAssay (NCI):
“And” between values parts separate entries of the source, which are not always exact repeats. Equal entries are not always repeated.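 The compound was tested at five concentrations on cells cultured in 96-well plates, with a 48-hour exposure period. GI50 is the concentration that inhibits growth by half. TGI denotes the concentration required for complete inhibition of growth.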

How the values were obtained:
Assay in all cases: DTP human tumour cell line panel, 48 h
COLO 205 colon = test system: COLO 205 colon
HOP-92 NSCLC = test system: HOP-92 NSCLC
T-47D breast = test system: T-47D breast
HCT-15 colon = test system: HCT-15 colon
SNB-19 CNS = test system: SNB-19 CNS
OVCAR-3 ovarian = test system: OVCAR-3 ovarian
SF-295 CNS = test system: SF-295 CNS
SK-OV-3 ovarian = test system: SK-OV-3 ovarian

Row | Structure (SMILES) | TGI (COLO 205 colon) | TGI (HOP-92 NSCLC) | TGI (T-47D breast) | TGI (HCT-15 colon) | TGI (SNB-19 CNS) | GI50 (COLO 205 colon) | GI50 (OVCAR-3 ovarian) | TGI (OVCAR-3 ovarian) | GI50 (HOP-92 NSCLC) | GI50 (T-47D breast) | GI50 (HCT-15 colon) | GI50 (SNB-19 CNS) | GI50 (SF-295 CNS) | TGI (SF-295 CNS) | GI50 (SK-OV-3 ovarian) | TGI (SK-OV-3 ovarian)
1 | Cc1ccc2c(c1)C=CC(C#N)N2C(=O)Oc1ccccc1 (stereo not given) | 70.1 µM | 64.7 µM | 73.8 µM | 57.2 µM | > 100 µM | – | – | – | – | – | – | – | – | – | – | –
2 | Oc1c(CN2CCN(c3ccccc3F)CC2)cc(Br)c2cccnc12 | 55 µM | 19.8 µM | 60.5 µM | > 100 µM | > 100 µM | 16.1 µM | 0.576 µM | 21.2 µM | 0.896 µM | 0.565 µM | 0.143 µM | 1.14 µM | 2.92 µM | 42.1 µM | 1.45 µM | 27.9 µM
3 | Cc1c(-c2nnc(-c3cc(Cl)c(Cl)cc3Cl)o2)nnn1-c1ccnc2c(C(F)(F)F)cccc12 | 33.2 µM | 32.2 µM | 77.4 µM | > 100 µM | 79.9 µM | 17.4 µM | 27.5 µM | 82.7 µM | 14.4 µM | 21.7 µM | 31.5 µM | 23.8 µM | 27.6 µM | 76.2 µM | 24.5 µM | 61.1 µM
4 | C/C=C/C1=CN2C(=O)c3cc(OC4OC(C)C(NC)C(C)(O)C4O)c(C)c(O)c3N=C[C@@H]2C1 (stereo not given in full) | – | – | 15.3 µM | 11 µM | – | – | 0.203 µM | – | – | – | – | – | < 0.01 µM | > 100 µM | – | 12.4 µM
5 | O=c1ccnc(SCc2ccc(Cl)cc2)[nH]1 | > 100 µM | > 100 µM | > 100 µM | > 100 µM | > 100 µM | – | – | > 100 µM | – | – | – | – | – | > 100 µM | – | > 100 µM
6 | COc1ccc2nc(-c3cc4c([nH]c5ccccc54)c(-c4ccc(F)c(F)c4)n3)[nH]c2c1 | 4.66 µM | 29.5 µM | 20 µM | 16.7 µM | > 100 µM | 1.88 µM | 1.94 µM | 4.12 µM | 5.96 µM | 3.76 µM | 3.41 µM | 8.57 µM | – | – | 17.1 µM | 31.4 µM
7 | C=CCSSc1ncnc2c1ncn2C1OC(CO)C(O)C1O (stereo not given) | 13.1 µM | 4.98 µM | > 100 µM | > 100 µM | > 100 µM | 2.74 µM | 0.829 µM | > 32.7 µM | 0.222 µM | 0.976 µM | 3.28 µM | > 55.7 µM | 2.58 µM | > 100 µM | 0.501 µM | > 87.2 µM
8 | Nc1nc(-c2ccccc2)cc(-c2ccc(Cl)cc2)c1-c1nc2ccccc2o1 | 37.3 µM | 6.83 µM | 27.3 µM | 23.2 µM | 37.9 µM | 21.4 µM | 15.7 µM | 30.8 µM | 1.7 µM | 4.21 µM | 10.4 µM | 17.7 µM | 20.5 µM | 37.7 µM | 15.9 µM | 30.7 µM
9 | CC(=O)[O][Bi]([c]1ccccc1)[c]1ccccc1 | 7.27 µM | 4.28 µM | > 100 µM | 4.06 µM | 26.8 µM | 2.84 µM | 11.8 µM | 34.3 µM | 1.33 µM | 5.61 µM | 1.92 µM | 12.6 µM | 17.5 µM | 33.4 µM | 16.6 µM | 30.5 µM
10 | Cc1cc2nc(C(Cl)Cl)nc(-c3ccccc3)n2n1 | 4.56 µM | 12.2 µM | 89.1 µM | 20.8 µM | 28 µM | 1.77 µM | 2.11 µM | 4.53 µM | 2.43 µM | 4 µM | 4.11 µM | 4.04 µM | 3.48 µM | 15.9 µM | 3.34 µM | 21.5 µM
11 | Cc1ccc(NC(=O)c2cc3ccccc3cc2O)c(C)c1.Cc1ccc(NC(=O)c2cc3ccccc3cc2[O-])c(C)c1.[Ni+2] | 24.6 µM | – | 14.8 µM | 17.2 µM | 20.2 µM | 6.65 µM | 4.23 µM | 20.6 µM | – | 3.08 µM | 3.24 µM | 3.72 µM | 3.89 µM | 14.3 µM | 2.9 µM | 11.6 µM
12 | N#Cc1nn(-c2cc(=O)[nH]c3ccc(Br)cc23)c(N)c1C#N | > 100 µM | > 100 µM | > 100 µM | > 100 µM | > 100 µM | > 100 µM | > 100 µM | > 100 µM | > 100 µM | 6.46 µM | > 100 µM | > 100 µM | > 100 µM | > 100 µM | > 100 µM | > 100 µM
13 | Cc1ccc(C2=NN(c3ccc(S(N)(=O)=O)cc3)C(c3cn(-c4ccccc4)nc3-c3ccccc3)C2)cc1 (stereo not given) | > 100 µM | 22.2 µM | > 100 µM | > 100 µM | > 100 µM | 15.1 µM | 14.3 µM | > 100 µM | 3.33 µM | 9.13 µM | 7.53 µM | > 100 µM | 73.3 µM | > 100 µM | > 100 µM | > 100 µM
14 | COc1ccc(C2CC(=O)c3c(O)c(OC)c(OC)c(OC)c3O2)cc1O (stereo not given) | 32.5 µM | 82.4 µM | 77.9 µM | > 100 µM | > 100 µM | 6.63 µM | 0.0627 µM | 0.749 µM | 0.518 µM | 19.2 µM | 0.0459 µM | 0.0833 µM | 0.374 µM | > 100 µM | 0.371 µM | > 100 µM
15 | O=[N+]([O-])c1cc2c(c([N+](=O)[O-])c1)Nc1ccccc1O2 | 27.8 µM | – | 10.2 µM | > 100 µM | > 100 µM | 10.5 µM | 3.69 µM | > 100 µM | – | 2.79 µM | 5.49 µM | 6.33 µM | 4.7 µM | 29.1 µM | 15.2 µM | 58.6 µM
16 | Cn1c(=N)n[n+]([O-])c2ccccc21 | 5.3 µM and 5.52 µM | 90.9 µM | 21.5 µM and 43.2 µM | 10.8 µM | 12.3 µM and 13.3 µM | – | – | – | – | 4.34 µM and 9.12 µM | 4.72 µM | 2.63 µM and 6.41 µM | – | 4.49 µM and 15.2 µM | – | 46.9 µM and 52.5 µM
